Data on one molecule can be found in patent US20210352950A1 (priority 2019, published 2021).

The subject of test [1] is HCT116 subcutaneous tumors. Nature of the test: HCT116 xenograft tumor volume. Format: in vivo, mouse. To be noted: NSG mice.
Test [2] has as its system FTH. Nature of the test: FTH protein expression in cells (western blot). As to conditions: HCT116, CT26.WT, STS 24 hours + vitamin C 350 μM 3 hours. Format: cell-based, human and murine. As for the experimental part: (§1) Cells were washed twice in ice-cold PBS and lysates were prepared in RIPA lysis buffer (50 mM Tris HCl pH 7.4, 150 mM NaCl, 1% NP-40, 0.25% deoxycholic acid, 1 mM EDTA) supplemented with protease and phosphatase inhibitors (protease inhibitor cocktail set III EDTA-free, Calbiochem, Cat. #: S39134; PhosStop, Roche), Samples were sonicated (bioruptor plus, diogenode) and centrifuged at 16.1 g for 30 minutes at 4° C. Tumor tissues were collected and snap frozen in liquid nitrogen immediately after mice were sacrificed, and stored in -80° C. until use. […] Protein concentrations were determined by BCA assay (Thermo Fisher Scientific, Cat. #: 23225). Proteins were diluted in 1× Laemmli sample buffer, boiled at 95° C. for 5 minutes and 30 μg of total proteins were separated by using SDS-PAGE and analyzed by western blotting by standard procedures. […] Membranes were incubated overnight at 4° C. with gentle shaking with the following primary antibodies: […] ADI-SPA894), FTH (1:1000, Cell Signaling, Cat. #: 3998), AMPK (1:1000, Cell Signaling, Cat. #: 2532), phospho-[…] AMPK (1:1000, Cell Signaling, Cat. #: 2535), eIF2a (1:1000, Cell signaling, Cat. #: 5324), phospho […] eIF2a (1:1000, Cell signaling, Cat. #: 3597), AKT (1:1000, Cell Signaling, Cat. #: 9272), phospho-[…] […] Bands intensity was quantified with NIH Image J software (version 1.48v).

Test [3] has as its system HO-1. The test is described as follows: HO-1 protein expression in grafted HCT116 tumors. Format: in vivo, mouse. To be noted: ad libitum or FMD cycles, vitamin C 4 g/kg i.p. twice a day.
Test [4] deals with ROS in HCT116 cells. The test is described as follows: CellROX reactive oxygen species measurement. The test is classed as cell-based, human. To be noted: HCT116, vitamin C 1 mM as single intervention, 30 minutes. The method, then:
Intracellular reactive-oxygen species (ROS) were measured using the CellROX oxidative stress reagents (Life Technologies, Cat. #: 10422). CellROX fluorogenic probe is designed to measure reactive-oxygen species (ROS) in live cells. […] For ROS measurement, cells were seeded in 10 cm petri dish (4×10^5 cells in CTR medium). After 24 hours cells were rinsed twice in 1×PBS and CTR or STS medium was added. 24 hours later, cells were trypsinized, resuspended in their respective media, and treated with 1 mM sodium ascorbate and 1 μM CellROX deep red reagent in the dark, for 30 minutes at 37° C. and 5% CO2. Then, fluorescence was immediately analyzed by flow cytometry (Attune NxT flow cytometer). Data were processed by Kaluza analysis software (Beckman coulter, version 2.0). Data were expressed as fold change of the median fluorescent intensity (MFI) of each treated sample versus the MFI of control sample.

The subject of test [5] is ferrous ion (Fe2+) in HCT116 cells. Nature of the test: Intracellular ferrous iron detection (Iron Assay Kit). The test is classed as cell-based, human. As to conditions: HCT116, STS 24 hours + vitamin C 350 μM 3 hours, compared to all other conditions. The method, then:
Intracellular ferrous ions were measured using Iron Assay Kit (Cat. #: ab83366). Ferrous ions (Fe^2+), but not ferric ions (Fe^3+) specifically reacts with […] (an iron chromogen) producing a stable colored complex, whose absorbance is measured at 593 nm. For Fe^2+ measurement experiment, cells were seeded in 10 cm petri dish (4×10^5 cells) in CTR medium. After 24 hours cells were rinsed twice in 1×PBS and CTR or STS medium was added. […] Next, cells were lysed in iron assay buffer and intracellular ferrous iron level was measured according to manufacturer protocol. Absorbance was recorded at the wavelength of 593 nm using a microplate reader (Infinite M200 TECAN). Data are expressed as fold change versus control sample.

Test [6] deals with phospho-AKT (serine 473). Nature of the test: AKT phosphorylation (western blot). Format: cell-based, human. As to conditions: HCT116, STS 24 hours + vitamin C 350 μM 3 hours. As for the experimental part: as §1
For test [7], the system named is KRAS wild type cell lines (SW48, HT29, PC-3, COV362), normal colon cell line (CCD841CoN) and normal fibroblasts (BJ). Nature of the test: Muse cell viability assay, KRAS wild type and normal cells. Format: cell-based. To be noted: single agent or in combination with STS condition.
The test system of test [8] is phospho-eIF2a (serine 51). Nature of the test: eIF2a phosphorylation (western blot). Format: cell-based, human. To be noted: HCT116, STS 24 hours + vitamin C 350 μM 3 hours. The method, then: as §1
Test [9] relates to HCT116 cells. Nature of the test: Muse cell viability assay (percentage of dead cells). To be noted: HCT116, CTR medium, vitamin C ≥0.3 mM (350 μM), 24 hours.

Consider `O=C1O[C@H]([C@@H](O)CO)C(O)=C1O` [vitamin C, ascorbic acid], for which, in test [1] (3-days FMD every week or vitamin C 4 g/kg i.p. twice a day), the “tumor progression, single interventions” value is “delayed tumor progression”. The “anti-cancer effect combined with fasting cycles” value in [1] (3 cycles of fasting (2 days, water only) + vitamin C 4 g/kg i.p. twice a day) is listed as “significantly enhanced”. Besides, in test [2], the “FTH protein expression level” value is listed as “reduces FTH protein expression level”. For the same molecule, in test [3], the “HO-1 protein expression level in grafted tumors” value is listed as “HO-1 up-regulation”. The ROS levels result in test [4] is “increase ROS levels”. In [5], the “ferrous ion (Fe2+) level” value is listed as “significantly higher”. The “AKT phosphorylation level (downregulated upon STS)” value in test [6] was “potentiated even further”. For the same molecule, the “sensitivity to vitamin C treatment” value in test [7] is on record as “not sensitive”. Moreover, in test [8], the eIF2a phosphorylation level entry was “significantly induced the phosphorylation level”. In addition, the cell death result in test [9] is given as “able to induce cell death”.
